Measured values published in US20090018136A1, “METHODS AND COMPOSITIONS FOR THE TREATMENT OF VASCULAR DISEASE” (priority 2005, published 2009).
Counter-ions that a name gives are not always drawn.

Legend:
[1] = for water adsorbed (hygroscopicity): content to which the form adsorbs water; for water adsorbed (hygroscopicity) / hygroscopicity: dihydrochloride
[2] = system: sickle cell transgenic (PS) mice; details: administration to sickle cell transgenic (PS) mice; cited from earlier work
[3] = system: beagles; details: dog, in vivo
Method: This study evaluated the cardiovascular effects of high doses of 6R-BH4 in combination with the PDE5 inhibitor sildenafil citrate in vivo. Eight male research nonnaïve and naïve purebred beagles were dosed in a double Latin square crossover design as described in the following table. All animals were dosed by oral gavage. Test articles were administered at a dose volume of 5 mL/kg (for a total volume of 10 mL/kg for the combination dose); control animals were dosed at a dose volume of 10 mL/kg. 6R-BH4 (sapropterin dihydrochloride) provided as 300 mg tablets (100 mg active 6R-BH4/tablet) stored at room temperature with desiccant.
At initiation of treatment, the animals were approximately 7 to 10 months old, and their body weights prior to dosing ranged from 7.8 to 12.0 kg.
At least 2 weeks prior to initiation of treatment, animals were fasted overnight, anesthetized, and an electrocardiogram (ECG) and blood pressure transmitter were implanted into the abdomen and sutured to the abdominal wall. The blood pressure catheter was placed in an artery and advanced to the abdominal aorta. Animals were checked twice daily (a.m. and p.m.) for mortality, abnormalities, and signs of pain and distress. Additional findings were recorded as observed.
Detailed observations were taken three times during the predose phase (including the day before dosing) and on Days 3 and 10 of the dosing phase. For each dosing day, ECG and pressure measurements were recorded for at least 90 minutes prior to dosing, continuously for at least 8 hours after dosing, and then for one period of at least 15 minutes in duration each hour through at least 24 hours postdose. Blood pressure measurements included systolic, diastolic, and mean arterial pressures and pulse pressure (systolic-diastolic). […]
Quantitative evaluation of ECG measurements, including RR interval, QT, and rate-corrected QT (QTc, using Fridericia's method), were done.
Positive inotropic effects (+dP/dtmax) and heart rate were calculated from a left ventricular pressure signal predose and approximately 2, 4, 8, 12, and 24 hours postdose. […]

[4] = system: hypertensive patients; test: Study 2: dose-response of oral BH4 on blood pressure and heart rate, after 2-week vitamin C run-in; assay type: in vivo, human
Method: Prior studies have used parenteral infusion of BH4 or a single oral dose; thus it was not known whether long-term oral BH4 over a period of days to weeks would result in a sustained improvement in endothelial dysfunction. […] Two studies were conducted to investigate the duration of action of oral BH4 and the response of hypertensive subjects to different doses of BH4. […] Patients were continued on their current anti-hypertensive therapy which remained unchanged. […] BH4 powder was obtained from Schircks Laboratories (Jona, Switzerland). BH4 when administered with vitamin C was compounded with vitamin C at a ratio of 1 mg of vitamin C/1 mg BH4 into appropriate sized capsules. Subjects were advised to keep the pills in a freezer or refrigerator. For both study 1 and study 2, the primary end point after statistical analysis was a reduction of systolic, mean and diastolic BP during BH4 therapy. Secondary end points included improvement of endothelial function as FMD. Linear mixed effects models for repeated measures data were used to analyze change in BP from baseline to end of treatment period and differences in change between 100 mg and 200 mg dose groups. A quadratic term for week was included in the model to account for non-linear trends over the treatment period. Dose, week and week squared were the main effect terms in the model; dose by week and dose by week squared were the interaction terms in the model. Significant interaction terms indicate a difference in the pattern of change between the two dose groups. FMD data was analyzed using the two-tailed student t-test. […] Of the 20 subjects who qualified for participation, 4 were excluded during the run-in phase because of inability to return for follow-up appointments. There were 6 male subjects, mean age 59.5±8.3 years. Eight subjects received 200 mg b.i.d (twice daily) of oral BH4 and 8 received 100 mg b.i.d. of oral BH4. […] Because BH4 was compounded with vitamin C in a 1:1 ratio, all subjects received vitamin C, at their assigned BH4 dose, twice a day during the first 2-week period. After this 2-week run-in period, subjects received BH4 only at their assigned dosage for the next 4 weeks. Weekly heart rate and BP measurements were made during the run-in period and treatment period. Mean blood pressure was calculated as: (SBP+2×DBP)/3. BH4 was then stopped and follow-up was performed at 1 and 4 weeks after discontinuation where BP and heart rate measurements were made. Routine chemistries and LFT's were drawn prior to initiation of medication, at the end of BH4 therapy and one month after discontinuation of BH4.

Compound: C[C@H](O)[C@H](O)[C@H]1CNc2nc(N)[nH]c(=O)c2N1.Cl.Cl [form A, (6R)-L-erythro-tetrahydrobiopterin dihydrochloride]
- water adsorbed (hygroscopicity) [1]: about 3 percent by weight
- hygroscopicity [1]: slightly hygroscopic
- phase equilibration test of suspensions ([1]; tetrahydrofuran five days or tertiary-butyl methyl ether 18 hours, under nitrogen at room temperature, then filtration and air-drying): unchanged

Compound: C[C@H](O)[C@H](O)[C@H]1CNc2nc(N)[nH]c(=O)c2N1.Cl.Cl [form B, (6R)-L-erythro-tetrahydrobiopterin dihydrochloride]
- hygroscopicity [1]: slightly hygroscopic

Compound: C[C@H](O)[C@H](O)[C@H]1CNc2nc(N)[nH]c(=O)c2N1.Cl.Cl [form C, (6R)-L-erythro-tetrahydrobiopterin dihydrochloride]
- hygroscopicity [1]: slightly hygroscopic

Compound: C[C@H](O)[C@H](O)[C@H]1CNc2nc(N)[nH]c(=O)c2N1.Cl.Cl [form D, (6R)-L-erythro-tetrahydrobiopterin dihydrochloride]
- hygroscopicity [1]: slightly hygroscopic

Compound: C[C@H](O)[C@H](O)[C@H]1CNc2nc(N)[nH]c(=O)c2N1.Cl.Cl [form E, (6R)-L-erythro-tetrahydrobiopterin dihydrochloride]
- hygroscopicity [1]: non-hygroscopic

Compound: C[C@H](O)[C@H](O)[C@H]1CNc2nc(N)[nH]c(=O)c2N1.Cl.Cl [form F, (6R)-L-erythro-tetrahydrobiopterin dihydrochloride]
- water adsorbed (hygroscopicity) [1]: about 3 percent by weight
- hygroscopicity [1]: slightly hygroscopic

Compound: C[C@H](O)[C@H](O)[C@H]1CNc2nc(N)[nH]c(=O)c2N1.Cl.Cl [form J, (6R)-L-erythro-tetrahydrobiopterin dihydrochloride]
- hygroscopicity [1]: slightly hygroscopic

Compound: C[C@H](O)[C@H](O)[C@H]1CNc2nc(N)[nH]c(=O)c2N1.Cl.Cl [form K, (6R)-L-erythro-tetrahydrobiopterin dihydrochloride]
- water adsorbed (hygroscopicity) [1]: about 2.0 percent by weight
- hygroscopicity [1]: slightly hygroscopic

Compound: C[C@H](O)C(=O)C1=Nc2c(nc(N)[nH]c2=O)NC1 [sepiapterin]
- blood cell adhesion [2]: attenuation

Compound: CCCc1nn(C)c2c(=O)[nH]c(-c3cc(S(=O)(=O)N4CCN(C)CC4)ccc3OCC)nc12 [sildenafil citrate]
- Arterial pulse pressure [3]: significantly increased
- Heart rate [3]: significantly increased

Compound: O=C1O[C@H]([C@@H](O)CO)C(O)=C1O [vitamin C, ascorbic acid, reference compound]
- diastolic arterial BP ([4]; Study 2, 16 subjects, after 2 weeks of vitamin C run-in, 84±13 before, p=ns): 86±11 mmHg
- mean arterial BP ([4]; Study 2, 16 subjects, after 2 weeks of vitamin C run-in, 106±10 before, p=ns): 106±12 mmHg
- systolic arterial BP ([4]; Study 2, 16 subjects, after 2 weeks of vitamin C run-in, 152±11 before, p=ns): 148±19 mmHg
- change in heart rate or BP during the run-in phase ([4]; Study 2, vitamin C twice a day for 2 weeks, either group): no significant change
